“Also recorded” adds a separate entry of the source.
Legend:
[1] = Pharmacokinetics of deoxyschizandrin in rats after single and multiple administrations (UHPLC-MS/MS of plasma); type: in vivo, SD rats; conditions: for AUMC0→t / AUC(0-t) / AUC(0-inf) / Cmax / MRT / Tmax / half-life: rat plasma; for AUC(0-t) / AUC(0-inf) / Cmax / MRT / Tmax / half-life: male, SD, rat, plasma
Procedure: The mobile phase A was acetonitrile, and mobile phase B was 0.1% formic acid in water, and the initial mobile phase of gradient elution program was consisted of 60% phase A and 40% phase B. The sample injection volume was set at 10 μL. Gradient elution program was supplied in Supplementary Table S1.
The mass spectrometry detection was achieved on an Agilent 6460A mass spectrometer with ESI source. […] The settings of the mass spectrometer source were as follows: capillary voltage 4,000 V, sheath gas flow 12 L/min, temperature 400°C, dry gas (nitrogen) flow 10 L/min and temperature 350°C, nebulizer pressure 45 psi. All analytes were detected in positive ionization mode. Collision gas (high purity liquid nitrogen) was set at 0.25 MPa. The structures of both two analytes and IS are display in Figure 1.
The pretreatment was performed for the plasma sample by one-step protein precipitation, Briefly, 100 μL sample was transferred into a 1.5 mL EP tube prior to adding with 300 μL methanol(containing 200 ng/mL IS). The mixture was vortex-mixed for 30 s before centrifugation at 17,400 g for 10 min at room temperature, and 100 μL of the supernatant was diluted with 100 μL of acetonitrile (v/v, 1:1) Then, a 10 μL aliquoted of diluted solution was injected into the UHPLC-MS/MS system for analysis.
The protocol of the animal study was approved by the Experimental Animal Ethics Committee of the Shanghai University of Traditional Chinese Medicine. Specific Pathogen Free (SPF) grade SD rats, male, 8 weeks old, 200–250 g, were obtained from the animal experiment center of Shanghai University of Traditional Chinese Medicine. After passing quarantine, the rats were adaptive fed for 2 days. Rats were fasted for 12–14 h, followed by the initiation of pharmacokinetic study of Tac and deoxyschizandrin. This animal study was carried out in accordance with the National Institutes of Health Guide for the Care and Use of Laboratory animals.
(§1) In this study, 42 rats were divided equally into seven groups of six rats each, numbered NG2201-NG2207. Among them, the NG2201 and NG2202 group was dosed with 150 mg/kg deoxyschizandrin alone to study the PK of deoxyschizandrin in rats after single and multiple doses; the NG2203 group was administrate dosed with 1.0 mg/kg of Tac; the NG2204-NG2206 groups were dosed with 75, 150, and 300 mg/kg of deoxyschizandrin plus 1.0 mg/kg Tac, respectively, and the NG2207 group was dosed with the Wuzhi capsule (approximately equal to 150 mg/kg of deoxyschizandrin) plus 1.0 mg/kg of Tac ([Teng et al., 2022]). The detailed dosing regimen is shown in Table 2, and all dose in this experiment were calculated according to clinical dose. Blood samples (approximately 300 μL for each) for PK analysis were collected into lithium–heparin tubes. The plasma sampling schedules are outlined below: Blood samples were drawn pre-dose, at 5, 10, 20 and 30 min, and at 1, 1.5, 2, 4, 8 and 24 h after drug administration. The blood samples were centrifuged at 5,000 g for 15 min at 4°C to collect plasma samples, which were placed −80 refrigerator.
The rat plasma collected from each group was pretreated according to the method in section 2.5, and exposure levels of Tac and deoxyschizandrin were determined using the above established UHPLC-MS/MS method and the PKs were calculated using DAS software using non-compartment model (version 2.0, China Pharmacological Society). The data were presented as mean ± SD.

[2] = Observation of adverse reactions in rats during 12 days of continuous administration; type: in vivo; conditions: 150 mg/kg deoxyschizandrin oral
Procedure: as §1, with “refrigerator. […]” for “refrigerator.”

[3] = Stability of the two analytes in rat plasma under different storage conditions; type: in vitro ADME; conditions: n=5
Procedure: To prepare the stock solution, approximately 2.00 mg of Tac, deoxyschizandrin and IS were accurately weighed and dissolved in methanol, respectively. The stock solutions of Tac and deoxyschizandrin with a final concentration of 1.00 mg/mL was obtained, and the IS stock solution was diluted to 100.00 ng/mL using methanol before use. The stock solutions were aliquoted and stored at −80°C. Combined working solutions were prepared by diluting the stock solution using 10% aqueous methanol at the following concentrations: 5.00, 10.00, 20.00, 50.00, 100.00, 200.00, 500.00, 1,000.00, and 2,000.00 ng/mL. Blank rat plasma was used to prepare the calibration standards. Quality-control (QC) samples of two analytes were prepared separately in the same manner at three concentrations, namely, 10 (low concentration), 100 (middle), 1,000 ng/mL (high), and all QC samples were stored at −80°C.
The methodology validation was completed according to FDA guidelines and Chinese Pharmacopoeia (2015 edition), and the linearity, inter- and intra-precision and accuracy, matrix effect and extraction recovery, stability and specificity of this method were validated according to previous study ([Lu et al., 2022]; [Wang et al., 2022]; [Shu et al., 2016]).

[4] = po, 150 mg/kg, NG2201: 150 mg/kg deoxyschizandrin single, D1-D2
[5] = po, 150 mg/kg, NG2202: 150 mg/kg deoxyschizandrin multiple (12 days), D11-D12

With `COc1cc2c(c(OC)c1OC)-c1c(cc(OC)c(OC)c1OC)C[C@H](C)[C@H](C)C2` [deoxyschizandrin] as the compound, how does the “increase of C max of deoxyschizandrin after consecutive 12 days of administration” value ([1]; 150 mg/kg, multiple vs single dose, rats) read?
Its value is “about 1.5 fold”.

And the AUMC0→t ([1]; NG2201: 150 mg/kg deoxyschizandrin single, D1-D2)?
Its AUMC0→t is 4,088.71 ± 1,056.37 ng. h^2/mL.

What about the AUMC0→t ([1]; NG2202: 150 mg/kg deoxyschizandrin multiple (12 days), D11-D12) of the same compound?
The AUMC0→t was 13,360.23 ± 8,009.79 ng. h^2/mL.

And the AUC(0-t) ([1]; oral, 150 mg/kg, NG2201: 150 mg/kg deoxyschizandrin, first day)?
Its AUC(0-t) is 786 ± 174 ng·h/mL.

And the AUC(0-t) ([1]; oral, 150 mg/kg, NG2202: after 12 days of continuous administration of 150 mg/kg deoxyschizandrin)?
Its AUC(0-t) is 1810 ± 707 ng·h/mL.

What about the AUC(0-inf) [1, 4] of the same compound?
Its AUC(0-inf) is 806 ± 176 ng·h/mL.

And the AUC(0-t) [1, 4]?
Its AUC(0-t) is 786 ± 174 ng·h/mL.

And the Cmax [1, 4]?
Its Cmax is 148 ± 23.2 ng/mL.

And the MRT [1, 4]?
The MRT was 5.17 ± 0.33 h.

And the Tmax [1, 4]?
The Tmax was 0.92 ± 0.2 h.

And the half-life [1, 4]?
The half-life was 4.48 ± 0.53 h.

And the AUC(0-inf) [1, 5]?
The AUC(0-inf) was 2410 ± 1720 ng·h/mL.

And the AUC(0-t) [1, 5]?
The AUC(0-t) was 1810 ± 707 ng·h/mL.

What about the Cmax [1, 5] of the same compound?
The Cmax was 229 ± 54.8 ng/mL.

And the MRT [1, 5]?
Its MRT is 6.95 ± 1.42 h.

And the Tmax [1, 5]?
The Tmax was 1.5 ± 1.23 h.

What about the half-life [1, 5] of the same compound?
The half-life was 9.1 ± 7.83 h.

What about the adverse reactions [2] of the same compound?
Its adverse reactions is “No adverse reactions occurred; also recorded: no adverse effects were demonstrated”.

What about the “Auto-sampler stability (24h, 4℃) Mean ± SD” value ([3]; Nominal Conc. 10 ng/mL) of the same compound?
The value was 10.23±0.93.

What about the “Bench-top stability (8h, RT) Mean ± SD” value ([3]; Nominal Conc. 10 ng/mL) of the same compound?
The value was 10.63±0.83.

And the “Frozen-thaw stability (3 times) Mean ± SD” value ([3]; Nominal Conc. 10 ng/mL)?
Its value is 10.45±1.01.

And the “Long-term stability (1 month, -80℃) Mean ± SD” value ([3]; Nominal Conc. 10 ng/mL)?
Its value is 10.37±0.25.

What about the “Auto-sampler stability (24h, 4℃) Mean ± SD” value ([3]; Nominal Conc. 100 ng/mL) of the same compound?
The value was 104.49±5.32.

What about the “Bench-top stability (8h, RT) Mean ± SD” value ([3]; Nominal Conc. 100 ng/mL) of the same compound?
The value was 102.39±2.82.

What about the “Frozen-thaw stability (3 times) Mean ± SD” value ([3]; Nominal Conc. 100 ng/mL) of the same compound?
Its value is 111.56±12.48.

And the “Long-term stability (1 month, -80℃) Mean ± SD” value ([3]; Nominal Conc. 100 ng/mL)?
The value was 101.86±11.38.

And the “Auto-sampler stability (24h, 4℃) Mean ± SD” value ([3]; Nominal Conc. 1000 ng/mL)?
Its value is 1024.65±13.44.

And the “Bench-top stability (8h, RT) Mean ± SD” value ([3]; Nominal Conc. 1000 ng/mL)?
The value was 1014.96±11.94.

What about the “Frozen-thaw stability (3 times) Mean ± SD” value ([3]; Nominal Conc. 1000 ng/mL) of the same compound?
Its value is 1050.50±50.54.

And the “Long-term stability (1 month, -80℃) Mean ± SD” value ([3]; Nominal Conc. 1000 ng/mL)?
The value was 1012.51±45.24.
